In the case of `Cc1cccc(C)c1C` [1,2,3-trimethylbenzene], the flash point came to 51 °C. Still for that read-out and setting: the same measure for `Cc1cc(C)cc(C)c1` [1,3,5-trimethylbenzene]: 44 °C. On the same count and under the same terms, then `CNCCO` [2-(methylamino)ethanol], with 72 °C. Same read-out and setting: then `C1CCCCC1` [cyclohexane], with -18 °C; and `CCCCCCCCCCCC` [dodecane], with 71 °C; and `CCOC(=O)CC` [ethylpropanoate], with 12 °C. The compound `CCCSSCC` [ethylpropyldisulfide] displayed a flash point of 57 °C.

Turning to `c1ccoc1` [furan], the flash point is -36 °C. On the same count and under the same terms, then `CCC(=O)OCc1ccco1` [furfurylpropanoate], with 82 °C.

For `CCCCCCC=O` [heptanal], the flash point stood at 40 °C. The same measure, in the same setting: then `CCCCCCC#N` [heptanenitrile], with 58 °C; and `CCCCCCC(=O)OC(=O)CCCCCC` [heptanoicanhydride], with 130 °C; and `CCCCCCCc1ccccc1` [heptylbenzene], with 95 °C. The same measure, in the same setting: then `CCCCCC=O` [hexanal], with 25 °C; and `CCCCCC` [hexane], with -26 °C; and `CCCCCC#N` [hexanenitrile], with 47 °C. On to `CCCCCCOC(C)=O` [hexylacetate], for which the flash point was determined as 55 °C. On the same count and under the same terms, the same measure for `CCCCCCOC=O` [hexylformate]: 44 °C; for `Ic1ccccc1` [iodobenzene]: 74 °C.

For `IC1CCCC1` [iodocyclopentane], the flash point worked out at 52 °C. Same read-out and setting: then `CCI` [iodoethane], with -5 °C.

Compound `CC(C)COC(=O)C(C)C` [isobutyl2-methylpropanoate] came in with a flash point of 38 °C. `CC(=O)OCC(C)C` [isobutylacetate]: the flash point was determined as 18 °C. Same read-out and setting: then `CCCC(=O)OCC(C)C` [isobutylbutanoate], with 46 °C; and `C=C(C)C(=O)OCC(C)C` [isobutylmethacrylate], with 41 °C; and `COCC(C)C` [isobutylmethylether], with -29 °C. The same measure, in the same setting: the same measure for `C=COCC(C)C` [isobutylvinylether]: -9 °C; for `CC(=O)OCCC(C)C` [isopentylacetate]: 36 °C; for `CC(C)CCc1ccccc1` [isopentylbenzene]: 62 °C. The same measure, in the same setting: then `CCCC(=O)OCCC(C)C` [isopentylbutanoate], with 59 °C.

`CC(C)CCOC=O` [isopentylformate] returned a flash point of 22 °C.

As to `C=CC(=C)C` [isoprene], the flash point was -48 °C.

With `CC(C)N` [isopropylamine], the flash point is -32 °C.

In turn, `CCCC(=O)OC(C)C` [isopropylbutanoate] gave a flash point of 24 °C. The same measure, in the same setting: the same measure for `CC(C)C1CCCCC1` [isopropylcyclohexane]: 35 °C. With `CC(C)C1CCCC1` [isopropylcyclopentane], the flash point was determined as 14 °C. On the same count and under the same terms, then `CC(C)OC=O` [isopropylformate], with -14 °C; and `Cc1cccc(O)c1` [m-cresol], with 86 °C. On the same count and under the same terms, the same measure for `CCCc1cccc(C)c1` [m-propyltoluene]: 52 °C. `Cc1cccc(C)c1` [m-xylene] returned a flash point of 25 °C.

Consider `COC(=O)C(C)C` [methyl2-methylpropanoate], for which the flash point was determined as 3 °C.

`COC(C)=O` [methylacetate] gave a flash point of -13 °C. Same read-out and setting: the same measure for `C=CC(=O)OC` [methylacrylate]: -3 °C; for `CCCCCC(=O)OC` [methylhexanoate]: 41 °C; for `CCCCCCCC(=O)OC` [methyloctanoate]: 69 °C. Still for that read-out and setting: then `CCC(C)(C)OC` [methyltert-pentylether], with -7 °C; and `C1COCCN1` [morpholine], with 31 °C; and `CC(C)(C)Cc1ccccc1` [neopentylbenzene], with 50 °C.

Consider `O=[N+]([O-])C1CCCCC1` [nitrocyclohexane], for which the flash point was 81 °C.

`O=[N+]([O-])C1CCCC1` [nitrocyclopentane] yielded a flash point of 67 °C. As for `CC[N+](=O)[O-]` [nitroethane], the flash point turned out to be 28 °C. Compound `CCCCCCCCC#N` [nonanenitrile] came in with a flash point of 82 °C. Consider `CCCCCCCCCOC(C)=O` [nonylacetate], for which the flash point stood at 91 °C. The same measure, in the same setting: then `CCCCCCCCCN` [nonylamine], with 74 °C; and `CCCCCCCCCOC=O` [nonylformate], with 88 °C. Still for that read-out and setting: the same measure for `CCc1ccccc1CC` [o-diethylbenzene]: 55 °C. The same measure, in the same setting: the same measure for `CCCCCCCC#N` [octanenitrile]: 74 °C; for `CCc1ccc(C)cc1` [p-ethyltoluene]: 36 °C. As for `Cc1ccc(C)cc1` [p-xylene], the flash point is 25 °C.

Compound `CCCCC=O` [pentanal] displayed a flash point of 8 °C. Same read-out and setting: then `CCCCC#N` [pentanenitrile], with 32 °C; and `CCCCC(=O)OC(=O)CCCC` [pentanoicanhydride], with 101 °C; and `CCCCCOC(C)=O` [pentylacetate], with 39 °C. In turn, `CCCCCOC(=O)c1ccccc1` [pentylbenzoate] had a flash point of 120 °C. On the same count and under the same terms, the same measure for `CCCCCOC(=O)CC` [pentylpropanoate]: 53 °C; for `CC(=O)C(C)(C)C` [pinacolone]: 5 °C. On to `CC(C)(C)C(=O)OC(=O)C(C)(C)C` [pivalicanhydride], for which the flash point was 63 °C.

In the case of `CCC=O` [propanal], the flash point is -27 °C. Same read-out and setting: then `CCCOC(=O)C(C)C` [propyl2-methylpropanoate], with 30 °C; and `CCCOC(=O)CCC` [propylbutanoate], with 35 °C; and `C=C(C)C(=O)OCCC` [propylmethacrylate], with 35 °C. The same measure, in the same setting: the same measure for `CCCOC(=O)CC` [propylpropanoate]: 22 °C. For the compound `C=COCCC` [propylvinylether], the flash point is -22 °C. Still for that read-out and setting: then `c1ccncc1` [pyridine], with 17 °C; and `CCC(C)N` (centres undefined) [sec-butylamine], with -19 °C; and `CC(=O)OC(C)(C)C` [tert-butylacetate], with 4 °C. As for `CC(C)(C)O` [tert-butylalcohol], the flash point is 11 °C. Still for that read-out and setting: then `CC(C)(C)N` [tert-butylamine], with -38 °C; and `CC(C)(C)c1ccccc1` [tert-butylbenzene], with 44 °C.

`CC(C)(C)OC=O` [tert-butylformate]: the flash point is -9 °C. Still for that read-out and setting: the same measure for `CSC(C)(C)C` [tert-butylmethylsulfide]: -3 °C; for `C=COC(C)(C)C` [tert-butylvinylether]: -17 °C; for `C1CCOC1` [tetrahydrofuran]: -21 °C. Still for that read-out and setting: then `Cc1ccccc1` [toluene], with 7 °C; and `C[C@H]1CC[C@H](C)CC1` [trans-1,4-dimethylcyclohexane], with 6 °C.

As for `C/C=C/CCCCC` [trans-2-octene], the flash point was 14 °C. The same measure, in the same setting: the same measure for `C/C=C/CC` [trans-2-pentene]: -45 °C; for `CC/C=C/CCC` [trans-3-heptene]: -7 °C; for `C[C@H]1CC[C@H](O)CC1` [trans-4-methylcyclohexanol]: 70 °C. Take `CCC/C=C/CCC` [trans-4-octene]: the flash point came to 8 °C. Still for that read-out and setting: the same measure for `C1CC[C@H]2CCCC[C@@H]2C1` [trans-decalin]: 53 °C; for `CCOC(OCC)OCC` [triethoxymethane]: 35 °C; for `CCCN(CCC)CCC` [tripropylamine]: 35 °C. The same measure, in the same setting: then `CCCCCCCCCCC=O` [undecanal], with 95 °C; and `C=COC(=O)CCC` [vinylbutanoate], with 20 °C.

As for `C=CC1CCCCC1` [vinylcyclohexane], the flash point turned out to be 21 °C. The same measure, in the same setting: the same measure for `C=COC(=O)CC` [vinylpropanoate]: 6 °C.

The source holds these as a separate data set.
As for `ClCC(Cl)(Cl)Cl` [1,1,1,2-tetrachloroethane], the flash point is 47 °C. Same read-out and setting: then `C=C(Cl)Cl` [1,1-dichloroethylene], with -25 °C; and `CCC(O)CO` (centres undefined) [1,2-butanediol], with 93 °C; and `Clc1ccccc1Cl` [1,2-dichlorobenzene], with 67 °C. `CCC(Cl)CCl` (centres undefined) [1,2-dichlorobutane] returned a flash point of 26 °C. On the same count and under the same terms, the same measure for `CC1CCCCC1C` (centres undefined) [1,2-dimethylcyclohexane]: 15 °C. In the case of `SCCS` [1,2-ethanedithiol], the flash point was determined as 50 °C. The same measure, in the same setting: the same measure for `CC(N)CN` (centres undefined) [1,2-propanediamine]: 33 °C. The same measure, in the same setting: then `NCCCN` [1,3-propanediamine], with 48 °C; and `OCCCO` [1,3-propanediol], with 131 °C.

This is another data set of the same source.
For `Cc1cccc(C)c1C` [1,2,3-trimethylbenzene], the flash point is 44.00 °C. Same read-out and setting: then `Cc1cc(C)cc(C)c1` [1,3,5-trimethylbenzene], with 50.00 °C. On the same count and under the same terms, the same measure for `CNCCO` [2-(methylamino)ethanol]: 74.00 °C; for `C1CCCCC1` [cyclohexane]: -20.00 °C.

For `CCCCCCCCCCCC` [dodecane], the flash point turned out to be 74.00 °C. On the same count and under the same terms, then `CCCCCC` [hexane], with -23.00 °C; and `Cc1ccccc1` [toluene], with 4.00 °C.
